Measured values taken from patent US11479587B2, “Cationic intrinsically disordered antimicrobial peptides” (priority 2016, dated 2022).
Values joined by “and” are separate entries in the source; they are usually repeats but may differ in a detail not shown here. Equal values may be shown once. No end group written: not given here. *: point of attachment. Palmitoyl = CCCCCCCCCCCCCCCC(=O)*

Key:
[1] = system: P. aeruginosa ATCC 10145; test: CFU-assay, P. aeruginosa-cidal activity; type: cell-based, Pseudomonas aeruginosa
[2] = system: S. aureus ATCC 6538; test: CFU-assay, S. aureus-cidal activity; type: cell-based, Staphylococcus aureus
Experimental: Thus, within the present invention, the antimicrobial activity is generally measured in nutrient deficient 10 mM sodium phosphate buffer pH 5.5, containing 0.25% glucose, using the CFU-assay according to Steinberg and Lehrer, 1997 (supra), unless otherwise indicated. The CFU-assay allows determination of the minimal bactericidal concentration (MBC, e.g., MBC90 and MBC100; i.e. the concentration of compound required to achieve a specified reduction in bacterial cell number (microbial death or killing)).
Various peptides corresponding to repeat domains of hornerin (HR 1-11: HRNR 2606-2628; HR 1-17: HRNR 2656-2684 and HR 1-18: HRNR 2656-2677) were tested for P. aeruginosa ATCC 10145-cidal activity in 10 mM Na-phosphate buffer pH 5.5, containing 0.25% glucose by counting the numbers of colonies of surviving bacteria at serial, twofold dilutions from 300 μg/ml down to 19 ng/ml of each peptide (CFU-assay; Steinberg and Lehrer, 1997, Methods Mol. Biol. 78, 169-186).
Staphylococcus aureus is a major skin pathogen, which causes skin infections, in particular in atopic dermatitis. The sensitivity of S. aureus ATCC 6538 towards several CIDAMPs was assessed using the CFU-assay as above (see Example 1). HR 1-18, which lacks S. aureus.-bactericidal activity, is converted in a S. aureus-cidal peptide, when all His are replaced by Arg (HR 1-18 4H-4R; see Table 13 and FIG. 9). […] HR 1-18 4H-4R is rich in Ser and Arg and contains a single Leu residue. When this single Leu was replaced by Gly in S. aureus-cidal HR 1-18 4H-4R (forming HR 1-18 4H-4R/L-G), S. aureus-cidal activity was abolished at both pH 7.0 and pH 5.5 (see Table 13 and FIG. 9).

[3] = Cytotoxicity (resazurin) assay
Experimental: For the cytotoxicity (resazurin) assay, HEK293 cells were counted manually in a Neubauer haemocytometer and plated at a density of 4000 cells/well into each well of the 384-well plates containing the 25×(2 μl) concentrated compounds. The medium used was Dulbecco's modified eagle medium (DMEM) supplemented with 10% foetal bovine serum (FBS). Cells were incubated together with the compounds for 20 h at 37° C., 5% CO2. To measure cytotoxicity, 5 μl (equals 100 μM final) resazurin was added to each well after incubation, and incubated for further 3 h at 37° C. with 5% CO2.
After final incubation fluorescence intensity was measured as F ex 560/10 nm, em 590/10 nm (F560/590) using a Tecan M1000 Pro monochromator plate reader. […] The concentration dependent percentage cytotoxicity was fitted to a dose response function (using Pipeline Pilot) and CC50 values determined.

[4] = Hemolysis assay; type: cell-based; conditions: for HC50 at 1 h: human, washed erythrocytes from EDTA-blood, pH 7.4
Experimental: For the hemolysis assays EDTA-blood was centrifuged at 800×g for 10 min, and the plasma and buffy coat were removed. The erythrocytes were washed three times and resuspended in 5% PBS, pH 7.4. The cells were then incubated with end-over-end rotation for 1 h at 37° C. in the presence of different concentrations of peptides (0, 3, 10, 30, 60 μm). 0.1% Triton X-100 (Sigma-Aldrich) served as positive control. The samples were then centrifuged at 800×g for 10 min.
The absorbance of hemoglobin release was measured at 540 nm and is expressed as % of Triton X-100-induced hemolysis. These values of triplicates were plotted with Graph Pad Prism 4 as a dose response curve and the CC50 was determined.

## GRRGSGLGRSSSRGGRGSGSGR [HR 1-18 4H-4R]
[1]; pH 5.0, 0.25% glucose
  MBC90: 0.038 µg/mL
  MBC100: 0.15 µg/mL
[1]; pH 5.5
  P. aeruginosa MBC90: 0.018 µM
  P. aeruginosa MBC100: 0.142 µM
[1]; pH 6.0, 0.25% glucose
  MBC90: 2.35 µg/mL
  MBC100: 4.7 µg/mL
[1]; pH 6.5, 0.25% glucose
  MBC90: 2.35 µg/mL
  MBC100: 4.7 µg/mL
[1]; pH 7.0, 0.25% glucose
  MBC90: 2.38 µg/mL and 2.35 µg/mL
  MBC100: 9.38 µg/mL
[2]; pH 5.5, 0.25% glucose
  MBC90: 150 µg/mL
  MBC100: >300 µg/mL
[2]; pH 7.0
  S. aureus MBC90: 4.46 µM
  S. aureus MBC100: >143 µM
[2]; pH 7.0, 0.25% glucose
  MBC90: 9.35 µg/mL and 9.375 µg/mL
  MBC100: >300 µg/mL
  max.killing: max.killing: 98.8%
[3]
  CC50: > 15.2 µM
[4]
  HC50 at 1 h: > 150 µM

## GRRGSGLGRSSSRGQRGSGSGR [HR 1-18 HR]
[3]
  CC50: > 32 µg/mL
[4]
  HC50: > 300 µg/mL

## HAHSGHGQSTQRGSRTAGR [FLG-22082-2100]
[3]
  CC50: > 12.9 µM
[4]
  HC50 at 1 h: > 121 µM

## LRHGSGLGHSSSHGQHGSGSGR (Modified peptide derived from human hornerin (HR 1-18 G2656L))
[1]; pH 5.0, 0.25% glucose
  MBC90: 4.7 µg/mL
  MBC100: >300 µg/mL
[2]; pH 5.5, 0.25% glucose
  MBC90: 300 µg/mL
  MBC100: >300 µg/mL

## NHHRRHHRCR [LCE3D55-64]
[3]
  CC50: > 32 µg/mL

## Pal-CGQHGATSSGQSSSHGQHGSGSSQSSGYGR (C(Palmitoyl)GQHGATSSGQSSSHGQHGSGSSQSSGYGR) [S-Pal-HRNR1089-1117]
[2]; pH 5.5, 0.25% glucose
  MBC90: >150 µg/mL
  MBC100: >150 µg/mL

## Pal-SHHRHFRSHQCRRQRSNSCDR (Palmitoyl-SHHRHFRSHQCRRQRSNSCDR; cysteine pairing not given here) [Pal-LCE3C55-75]
[2]; pH 5.5, 0.25% glucose
  MBC90: 0.15 µg/mL
  MBC100: 0.59 µg/mL

## SGHSSVFGQHESGSGHSSAYSQHGSGSGHFC-Pal* (SGHSSVFGQHESGSGHSSAYSQHGSGSGHFC(Palmitoyl)-NH2) [S-Pal-HRNR1748-1778]
[2]; pH 5.5
  MBC100: 2.8 µM
[2]; pH 5.5, 0.25% glucose
  MBC90: 0.3 µg/mL
  MBC100: 9.38 µg/mL
[2]; pH 5.5, 0.25% glucose (text)
  MBC90: 0.09 µM

## SHHRHFRSHQCR [LCE3C55-66]
[3]
  CC50: > 32 µg/mL

## SHHRHFRSHQCRR [LCE3C55-67]
[3]
  CC50: > 32 µg/mL
[4]
  HC50: > 300 µg/mL

## SHHRPRLFHRHRH [LCE2A70-82]
[3]
  CC50: > 32 µg/mL

## SHHRPRLFHRRRH [LCE2B74-86]
[3]
  CC50: > 32 µg/mL
[4]
  HC50: > 300 µg/mL

## SHHRRRRSHCH [LCE1B78-88]
[3]
  CC50: > 32 µg/mL

## SRRSSSLSRSSSRSSRSSSSSR (Modified peptide derived from human hornerin (HR 1-18 4H-4R/9G-9S))
[1]; pH 5.0, 0.25% glucose
  MBC90: 0.15 µg/mL
  MBC100: 1.18 µg/mL
[2]; pH 5.5, 0.25% glucose
  MBC90: 150 µg/mL
  MBC100: >300 µg/mL
[2]; pH 7.2, 0.25% glucose
  MBC90: 75 µg/mL
  MBC100: >300 µg/mL
